One assay concerns Serum cholesterol. The assay is described as follows: Serum cholesterol lowering in dogs dosed 15 days with fenofibrate, CGS23425 or the combination. It is filed as in vivo. The method, then: Dogs were administered 50 mg/kg/day fenofibrate alone, 10 μg/kg/day CGS23425 alone, or the combination of 50 mg/kg/day fenofibrate +10 μg/kg/day CGS23425 for a period of 15 days. Cholesterol lowering was measured on treatment days 6, 8, 10, 13, 14, and 15.

Another assay concerns Serum total cholesterol. The experiment in a line: Serum total cholesterol lowering in rats dosed 9 days with CGS23425 in diet with and without fenofibrate.

Procedure for Serum total cholesterol: Male Sprague-Dawley rats (wt 125-150 g, 10 per group) were acclimated for one week with a normal chow (Purina #5001 powder) and had free access to drinking water. The animals, with increased weight to about 200 to 250 grams, were dosed 9 days with various doses of CGS23425 (0, 0.005, 0.05 and 0.5 ppm in diet, where total diet consumption was about 10 to 15 grams per day) with and without the presence of 25 mg/kg of body weight of fenofibrate given via oral gavage once a day. After the dosing period, the animals were fasted for 18 hours and euthanized and the blood was withdrawn via cardiac puncture.

In the case of `Cc1cc(NC(=O)C(=O)O)cc(C)c1Oc1ccc(O)c(C(C)C)c1` [CGS23425, N-[3,5-dimethyl-4-(4′-hydroxy-3′-isopropylphenoxy)-phenyl]-oxamic acid], the “Serum cholesterol lowering in dogs (% reduction)” value is listed as 13 ± 1.2 % reduction in the assay with Serum cholesterol (CGS23425 10 μg/kg/day alone, treatment day 6); 15.4 ± 2.3 % reduction in the assay on Serum cholesterol (CGS23425 10 μg/kg/day alone, treatment day 8); 18.4 ± 3.0 % reduction in the assay on Serum cholesterol (CGS23425 10 μg/kg/day alone, treatment day 10); 22.9 ± 2.5 % reduction in the assay with Serum cholesterol (CGS23425 10 μg/kg/day alone, treatment day 13); 21.1 ± 3.9 % reduction with Serum cholesterol (CGS23425 10 μg/kg/day alone, treatment day 14); 24.3 ± 1.7 % reduction in the assay with Serum cholesterol (CGS23425 10 μg/kg/day alone, treatment day 15). The “Serum cholesterol lowering in rats (% reduction)” value in the assay with Serum total cholesterol (CGS23425 0.005 ppm in diet alone (fenofibrate 0 mg/kg)) worked out at 4 ± 6 % reduction; in the assay on Serum total cholesterol (CGS23425 0.05 ppm in diet alone (fenofibrate 0 mg/kg)), 9±4 % reduction; with Serum total cholesterol (CGS23425 0.5 ppm in diet alone (fenofibrate 0 mg/kg)) it was 3 ± 7 % reduction.

For `CC(C)OC(=O)C(C)(C)Oc1ccc(C(=O)c2ccc(Cl)cc2)cc1` [Fenofibrate, fenofibrate], the “Serum cholesterol lowering in dogs (% reduction)” value was 0.1 ± 2.5 % reduction with Serum cholesterol (fenofibrate 50 mg/kg/day alone, treatment day 6); 3.5 ± 1.8 % reduction with Serum cholesterol (fenofibrate 50 mg/kg/day alone, treatment day 8); 8.6 ± 3.4 % reduction in the assay with Serum cholesterol (fenofibrate 50 mg/kg/day alone, treatment day 10); 12.1 ± 4.3 % reduction in the assay with Serum cholesterol (fenofibrate 50 mg/kg/day alone, treatment day 13); 12.4 ± 7.5 % reduction in the assay with Serum cholesterol (fenofibrate 50 mg/kg/day alone, treatment day 14); 14.3 ± 4.0 % reduction in the assay on Serum cholesterol (fenofibrate 50 mg/kg/day alone, treatment day 15). In addition, the “Serum cholesterol lowering in rats (% reduction)” value in the assay with Serum total cholesterol (fenofibrate 25 mg/kg oral gavage once a day alone (CGS23425 0 ppm), fasted 18 hours) came out at 12 ± 5 % reduction; with Serum total cholesterol (fenofibrate 25 mg/kg oral gavage once a day alone (CGS23425 0 ppm), fasted 18 hours, listed as fenofibrate), 12±5 % reduction.

These data come from patent US6680340B2, “Anti-hypercholesterolemic drug combination” (Merck & Co., Inc., priority 2000, dated 2004).
